Publication PMC10053807, “Natural Lipid Extracts as an Artificial Membrane for Drug Permeability Assay: In Vitro and In Silico Characterization” (Pharmaceutics, 2023)

Key:
[1] = PAMPA permeability, brain polar lipid extract (BPLE) membrane; details: for Papp at 4 h, 100 μM: pig, PAMPA; for Mean Pe: * = not detected at acceptor side, value calculated from limit of detection
[2] = PAMPA permeability, liver polar lipid extract (LPLE) membrane; details: for Papp at 4 h, 100 μM: bovine, PAMPA
[3] = PAMPA permeability, brain total lipid extract (BTLE) membrane; details: for Mean logPe / Mean Pe: Brain total lipid extract membrane, n=3; for Papp at 4 h, 100 μM: pig, PAMPA, pH 7.4; for Mean Pe: * = not detected at acceptor side, value calculated from limit of detection
[4] = PAMPA permeability, heart polar lipid extract (HPLE) membrane; details: for Papp at 4 h, 100 μM: bovine, PAMPA, pH 7.4
[5] = PAMPA permeability, comparison across the six natural lipid extract membranes; details: for dependence of permeability on the lipid extract (PCA biplot): compounds near the abscissa of the PCA biplot, Figure 12; for total-polar permeability comparison: heart, liver and brain extracts, Figure 10A–C
[6] = PAMPA permeability, heart total lipid extract (HTLE) membrane; details: for Mean logPe / Papp at 4 h, 100 μM / Mean Pe: Heart total lipid extract membrane, n=3; for Papp at 4 h, 100 μM: bovine, PAMPA; for PAMPA permeability on HTLE: pH 7.4, 4 h, 37 °C, in words (PCA biplot, Figure 11B)
[7] = PAMPA permeability, liver total lipid extract (LTLE) membrane; details: for Mean logPe / Mean Pe: Liver total lipid extract membrane, n=3; for Papp at 4 h, 100 μM: bovine, PAMPA, pH 7.4; for Mean Pe: * = not detected at acceptor side, value calculated from limit of detection
in vitro = details: bovine, PAMPA, pH 7.4
[8] = Brain Polar lipid extract membrane, n=3
[9] = pH 7.4, Mean Pe, n=3, * = not detected at acceptor side, value calculated from limit of detection
[10] = Heart Polar lipid extract membrane, n=3
[11] = pH 7.4, Mean Pe, * = not detected at acceptor side, value calculated from limit of detection
[12] = * = not detected at acceptor side, value calculated from limit of detection

SMILES	Mean logPe [1, 8]	Papp at 4 h, 100 μM ([1]; pH 7.4)	Papp at 4 h, 100 μM [2, 9]	Mean logPe ([2]; n=3)	Mean logPe [3]	Papp at 4 h, 100 μM [3]	Mean logPe [4, 10]	Papp at 4 h, 100 μM [4]	Mean logPe [6]	Papp at 4 h, 100 μM [6, 11]	Mean logPe [7]	Papp at 4 h, 100 μM [7]	total-polar permeability comparison [5]	PAMPA permeability on HTLE [6]	other results
CC(C)Cc1ccc(C(C)C(=O)O)cc1 (stereo not shown) [ibuprofen]	-5.12	7.64 ×10⁻⁶ cm/s	25.1 ×10⁻⁶ cm/s	-4.61	-5.05	8.97 ×10⁻⁶ cm/s	-4.62	24.2 ×10⁻⁶ cm/s	-4.76	17.3 ×10⁻⁶ cm/s	-4.54	29 ×10⁻⁶ cm/s	–	–	dependence of permeability on the lipid extract (PCA biplot) [5]: independent of the investigated lipids
O=C1NC(=O)C(c2ccccc2)(c2ccccc2)N1 [phenytoin]	-4.57	27.2 ×10⁻⁶ cm/s	34.6 ×10⁻⁶ cm/s	-4.46	-4.46	35.3 ×10⁻⁶ cm/s	-4.42	38.4 ×10⁻⁶ cm/s	-4.84	14.7 ×10⁻⁶ cm/s	-4.35	44.7 ×10⁻⁶ cm/s	–	–	dependence of permeability on the lipid extract (PCA biplot) [5]: independent of the investigated lipids
O=C1CN=C(c2ccccc2)c2cc([N+](=O)[O-])ccc2N1 [nitrazepam]	-4.67	21.5 ×10⁻⁶ cm/s	–	-4.60	-4.47	34.1 ×10⁻⁶ cm/s	-4.54	–	-4.46	–	-4.26	–	higher permeability in total lipids	–	–
Cc1c(OCC(F)(F)F)ccnc1C[S+]([O-])c1nc2ccccc2[nH]1 (stereo not shown) [lansoprazole]	-4.58	26.6 ×10⁻⁶ cm/s	24.4 ×10⁻⁶ cm/s	-4.62	-4.54	28.6 ×10⁻⁶ cm/s	-4.74	18 ×10⁻⁶ cm/s	-4.67	21.9 ×10⁻⁶ cm/s	-4.21	61.9 ×10⁻⁶ cm/s	–	–	dependence of permeability on the lipid extract (PCA biplot) [5]: independent of the investigated lipids
CCCCOc1cc(C(=O)NCCN(CC)CC)c2ccccc2n1 [dibucaine]	-4.19	65 ×10⁻⁶ cm/s	39.9 ×10⁻⁶ cm/s	-4.40	-4.40	–	-4.31	48.6 ×10⁻⁶ cm/s	-4.44	37.3 ×10⁻⁶ cm/s	-4.56	28.6 ×10⁻⁶ cm/s	higher permeability in polar lipids	high permeability	Mean Pe [3]: 40.24 10-6 cm/s
O=C1CC2(CCCC2)CC(=O)N1CCCCN1CCN(c2ncccn2)CC1 [buspirone]	–	–	57 ×10⁻⁶ cm/s	–	–	–	–	–	–	–	–	–	higher permeability in polar lipids	–	–
CC(=O)CC(c1ccccc1)c1c(O)c2ccccc2oc1=O (stereo not shown) [warfarin]	–	0.47 ×10⁻⁶ cm/s	7.48 ×10⁻⁶ cm/s	-5.14	-5.62	2.43 ×10⁻⁶ cm/s	-5.50	3.25 ×10⁻⁶ cm/s	–	0.29 ×10⁻⁶ cm/s	-4.86	13.9 ×10⁻⁶ cm/s	–	low	Papp at 4 h, 100 μM ([1]; pH 7.4, Mean logPe, Brain Polar lipid extract membrane, n=3): 1.41 ×10⁻⁶ cm/s; Papp at 4 h, 100 μM (in vitro): 0.891 ×10⁻⁶ cm/s
CC(C)C(=O)Nc1ccc([N+](=O)[O-])c(C(F)(F)F)c1 [flutamide]	-4.24	58.1 ×10⁻⁶ cm/s	29.4 ×10⁻⁶ cm/s	-4.54	-4.45	35.5 ×10⁻⁶ cm/s	-4.30	50.3 ×10⁻⁶ cm/s	-4.40	41.8 ×10⁻⁶ cm/s	-4.32	47.9 ×10⁻⁶ cm/s	–	high permeability	total-polar permeability comparison, brain extracts ([5]; BTLE vs BPLE): higher in the brain polar extract; total-polar permeability comparison, liver extracts ([5]; LTLE vs LPLE): higher in the liver total extract
NC(N)=Nc1nc(CSCCC(N)=NS(N)(=O)=O)cs1 [famotidine]	< -6.48	–	–	< -6.49	< -6.47	–	–	< 0.339 ×10⁻⁶ cm/s	–	–	–	< 0.331 ×10⁻⁶ cm/s	–	–	Mean Pe [1, 8]: < 0,33* 10-6 cm/s; Mean Pe ([2]; n=3, * = not detected at acceptor side, value calculated from limit of detection): < 0,33* 10-6 cm/s; Mean Pe [3]: < 0,34* 10-6 cm/s; Mean Pe ([4]; Heart Polar lipid extract membrane, n=3, * = not detected at acceptor side, value calculated from limit of detection): < 0,34* 10-6 cm/s; Mean Pe [6, 12]: < 0,33* 10-6 cm/s; Papp at 4 h, 100 μM ([6]; pH 7.4, Mean logPe): < 0.324 ×10⁻⁶ cm/s; Mean Pe [7]: < 0,33* 10-6 cm/s
CC1=NNS(=O)(=O)c2c1ccc(Cl)c2Cl [PGY0072]	-5.38	–	12.2 ×10⁻⁶ cm/s	-4.91	-5.50	3.23 ×10⁻⁶ cm/s	-5.35	4.67 ×10⁻⁶ cm/s	-5.40	4.26 ×10⁻⁶ cm/s	-4.66	22.2 ×10⁻⁶ cm/s	–	low	Mean Pe [1, 8]: 4.23 10-6 cm/s
COc1ccc2c(c1)N(C[C@H](C)CN(C)C)c1ccccc1S2 [levomepromazine]	-4.83	15.1 ×10⁻⁶ cm/s	28.5 ×10⁻⁶ cm/s	–	-4.89	15.8 ×10⁻⁶ cm/s	-5.20	6.57 ×10⁻⁶ cm/s	-4.90	13.2 ×10⁻⁶ cm/s	–	< 3.72 ×10⁻⁶ cm/s	heart total-liver polar	–	Papp at 4 h, 100 μM ([2]; pH 7.4, Mean logPe, n=3): 23.4 ×10⁻⁶ cm/s; Mean Pe [7]: < 3,7* 10-6 cm/s
CCn1cc(C(=O)O)c(=O)c2cc(F)c(N3CCNCC3)cc21 [norfloxacin]	< -6.30	–	7.17 ×10⁻⁶ cm/s	–	–	< 0.49 ×10⁻⁶ cm/s	-5.80	1.59 ×10⁻⁶ cm/s	–	–	–	< 0.501 ×10⁻⁶ cm/s	–	–	Mean Pe [1, 8]: < 0,50* 10-6 cm/s; Papp at 4 h, 100 μM ([2]; pH 7.4, Mean logPe, n=3): 5.25 ×10⁻⁶ cm/s; Mean Pe [3]: < 0,49* 10-6 cm/s; Mean Pe [6, 12]: < 0,54* 10-6 cm/s; Papp at 4 h, 100 μM ([6]; pH 7.4, Mean logPe): < 0.537 ×10⁻⁶ cm/s; Mean Pe [7]: < 0,5* 10-6 cm/s
